Tests used:
Assay type in all cases: cell-based
[1] = system: PC3 cell line; assay: Flow cytometry of HLA-E surface expression on AR-negative PC3; details: non-AR-transduced PC3
From the text: (§1) To evaluate the modulation of the androgen receptor and tumor HLA-E expression, we astably transduced AR negative cell lines PC3 and DU145 with an Androgen Response Element (ARE) GFP reporter (FIG. 16H). […] Using AR+ constructed cell lines, PC3 and DU145, we sought to determine the dependence of HLA-E expression and possible modulation by AR. […] Although potential therapies targeting immune enhancement are being explored, the expression of exhaustion markers such as PD-1, NKG2A, and potential engaging ligands that diminish their cytotoxic function limits their application. Exploring these factors with new combination approaches, such as ARi and anti-NKG2A, and understanding the modulation of its targets upon treatment is key in overcoming immune-resistant scenarios, especially in prostate cancer.
Experiments were conducted with noncytotoxic doses of vorinostat (0.3 μM) and panobinostat (3 nM).
PCa cells were plated at a density of 3×10^5 cells per well of a 6-well plate and adhered overnight. […] After treatment, cells were trypsinized, stained, and incubated (Cell Staining Buffer SouthernBiotech #0225-01S) with the corresponding antibody for 45-60 min at 4° C. Viability dye was added with each run. NK-92 cells and patient-derived cells were stained similarly. Markers used for experiments included: Thermofisher HLA-E Monoclonal Antibody (3D12HLA-E), Alexa Fluor™ 488, eBioscience™, CD274 (PD-L1, B7-H1) Monoclonal Antibody (MIH1), eFluor™ 450, eBioscience™, Cell Signaling PD-1 (D4W2J) XPR Rabbit mAb, SYTOX™ Orange Dead Cell Stain, for flow cytometry, BioLegend APC anti-human CD159a (NKG2A) Antibody #375108, BioLegend APC anti-human CD69 Antibody #310909, BioLegend Alexa Fluor® 647 anti-human CD137 (4-1BB) [4B4-1] #309823. For staining of the patient-derived PBMCs and subsequent NK cell characterization, the following antibodies were used: BioLegend Anti-Perforin Mouse Monoclonal Antibody (PerCP Cy5.50, clone: dG9) #308113, BioLegend Anti-Granzyme B Mouse Monoclonal Antibody (FITC, clone: GB11) #515403, BioLegend Anti-CD56 Mouse Monoclonal Antibody (Alexa Fluor® 700, clone: 5.1H1) #362521, and BioLegend (PE anti-human CD45 Antibody) #304008.

[2] = system: AR-transduced PC3-AR and DU145 cell lines; assay: Flow cytometry of HLA-E surface expression on AR-transduced PC3 and DU145
From the text: as §1
(§2) PCa cells were plated at a density of 3×10^5 cells per well of a 6-well plate and adhered overnight. […] After treatment, cells were trypsinized, stained, and incubated (Cell Staining Buffer SouthernBiotech #0225-01S) with the corresponding antibody for 45-60 min at 4° C. Viability dye was added with each run. NK-92 cells and patient-derived cells were stained similarly. […]

[3] = system: DU145; assay: Flow cytometry of HLA-E surface expression on non-AR-transduced DU145
From the text: as §1, §2

[4] = system: 22Rv1; assay: Co-culture of 22Rv1 with NK-92 cells, immune-mediated tumor cell killing
Experimental: (§3) They were co-treated with enzalutamide ([…]) or darolutamide (20 μM) for 48 h. Doses of AR inhibitors (ARi) used in the co-culture experiments were based on previous IC50 experiments. […] The immune-mediated effect of NK-92 on the PCa cell lines in the presence of enzalutamide (immune enhancement death) was normalized to baseline immune and tumor cell killing in each condition [(tumor cells+immune cells)-tumor baseline death=baseline immune death]. […] Cytokine analysis was performed to investigate the activation phenotype of NK cells when treated with ARi.
Prostate cancer cell lines were dyed with the blue CMAC live-cell dye (Thermo Fisher Scientific #C2110, per manufacturer protocol). Blue-fluorescent cancer cells were plated at a density of 10,000 cells per well of a 48-well plate. NK-92 cells were dyed with green CMFDA (Cayman Chemical Company #19583, per manufacturer protocol). Green-fluorescent NK-92 cells were added to the blue-fluorescent cancer cells at a 1:1 ratio. Enzalutamide (10 μM), darolutamide (20 μM), and 1 μM ethidium homodimer (EthD-1) were added at the same time as the NK cells. After 24 hours of co-culture, images of live cancer cells, live NK cells, and dead cells were taken using a fluorescent microscope. The co-culture experiments were run with internal control conditions and as a single treatment. Normalization was performed after analysis to take baseline death conditions into each experiment run. […] Cell adhered over 24 h, and when patient-derived NK cells were added, a control well was trypsinized, and cells resuspended and counted to adjust a 1:1 ratio before treatment addition. […]
(§4) Live cancer cells, NK cells, and dead cells were quantified using FIJI (Fiji Is Just ImageJ) software for images derived from fluorescent co-culture images. Images from the ImageXpress system were quantified using MetaXpress cytoplasmic/nuclear staining software. The percent of dead tumor cells in each well was quantified, and this percentage was normalized by subtracting baseline death from cancer cell-only wells, NK cell-only wells, or both.

[5] = system: PC3; assay: Co-culture of PC3 with NK-92 cells, immune-mediated tumor cell killing; details: PC3 + NK-92 1:1, 24 hours
Experimental: as §3
(§5) Prostate cancer cell lines were dyed with the blue CMAC live-cell dye (Thermo Fisher Scientific #C2110, per manufacturer protocol). […] Cell adhered over 24 h, and when patient-derived NK cells were added, a control well was trypsinized, and cells resuspended and counted to adjust a 1:1 ratio before treatment addition. […]
as §4

[6] = system: DU145; assay: Co-culture of DU145 with NK-92 cells, immune-mediated tumor cell killing; details: DU145 + NK-92 1:1, 24 hours
Experimental: as §3, §5, §4

Row | Compound | HLA-E expression [1] | HLA-E surface expression upon ARi ([2]; AR-responsive PC3-AR) | HLA-E surface expression upon ARi ([2]; AR-transduced (AR-responsive) DU145) | HLA-E expression [3] | cell death rate (NK cell-mediated tumor killing) ([4]; 22Rv1 + NK-92 1:1, 24 hours) | NK cell killing of PCa cells (immune enhancement) ([4]; 22Rv1 + NK-92 1:1, enzalutamide 10 μM, FIG. 15B) | cell death rate (NK cell-mediated tumor killing) [5] | cell death rate (NK cell-mediated tumor killing) [6]
1 | CC(O)c1cc(C(=O)N[C@@H](C)Cn2ccc(-c3ccc(C#N)c(Cl)c3)n2)n[nH]1 (some centres unmarked) [darolutamide] | 15.47% | increased | increased | 1.23% | – | – | – | –
2 | CNC(=O)c1ccc(N2C(=S)N(c3ccc(C#N)c(C(F)(F)F)c3)C(=O)C2(C)C)cc1F [enzalutamide] | – | – | – | – | 52.67±8.96% | 34.84% | 11.05±4.6% | 34.8±4.92%

Reference: patent US20240309090A1, “MODULATION OF ANDROGEN SIGNALING TO INNATE IMMUNE KILLING OF PROSTATE CANCER” (Brown University, priority 2023, published 2024)
